The values that follow are results of earlier work, collected in US5869336A, “Recombinant enzymatically active calpain expressed in a baculovirus system” (Cephalon, Inc., priority 1997, dated 1999).

Data set [1] has as its system EAA-induced protein breakdown. Particulars: in vivo; cited from earlier work.
A further data set has as its system cells. Particulars: cited from earlier work.
A further data set concerns neurons. Particulars: rats, clamping both carotid arteries and lowering arterial blood pressure; cited from earlier work.
The test system of data set [2] is vulnerable hippocampal neurons. Particulars: in vivo; cited from earlier work.
A further data set deals with calpain. Particulars: in vivo; cited from earlier work.

Turning to `CC(=O)N[C@@H](CC(C)C)C(=O)N[C@@H](CC(C)C)C(=O)N[C@H](C=O)CCCNC(=N)N` [leupeptin], the “lowering EAA-induced protein breakdown” value in data set [1] was “unsuccessful”. Also, the “uptake by cells” value in the data set on cells is “failed to enter the cells”. Also, the “protection of neurons against ischemic and hypoxic damage” value in the data set on neurons was “protected neurons against ischemic and hypoxic damage”. For the same molecule, in data set [2], the “protection against degeneration of hippocampal neurons after ischemia” value was “protected against the degeneration of vulnerable hippocampal neurons after ischemia”. For the same molecule, the “block of trauma-evoked calpain response” value with calpain was “block a trauma-evoked calpain response in vivo”.
